From patent US20140249135A1, “PIM KINASE INHIBITORS AND METHODS OF THEIR USE” (NOVARTIS AG, priority 2007, published 2014)
Read-outs that look alike come from different tables or passages of the source.

Experiments:
Type in all cases: biochemical
Pim1 kinase = Pim1 kinase (Homo sapiens, UniProt P11309); assay: Pim1 ATP depletion assay; conditions: Pim1 ATP depletion assay;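 note: Luciferase-luciferin luminescence readout of residual ATP after PIM1 transfers phosphate to a peptide substrate, 40 µM ATP added, reaction run to roughly half ATP consumption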
Chain of Pim1 kinase (P11309 whole entry): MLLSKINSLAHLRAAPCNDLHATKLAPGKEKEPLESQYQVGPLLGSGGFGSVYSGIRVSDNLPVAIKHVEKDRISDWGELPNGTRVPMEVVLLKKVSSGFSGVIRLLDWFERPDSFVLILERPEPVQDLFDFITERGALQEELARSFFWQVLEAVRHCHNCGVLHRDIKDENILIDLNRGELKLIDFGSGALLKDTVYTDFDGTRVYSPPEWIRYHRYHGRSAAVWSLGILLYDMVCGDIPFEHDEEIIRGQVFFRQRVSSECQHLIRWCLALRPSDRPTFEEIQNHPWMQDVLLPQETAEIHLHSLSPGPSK

Pim2 kinase = Pim2 kinase (Homo sapiens, UniProt Q9P1W9); assay: Pim2 ATP depletion assay;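 note: Luciferase-based luminescent readout of ATP remaining after PIM2 phosphorylates a BAD peptide, final 5 nM enzyme, 4 µM ATP, 10 µM peptide, 2.5% DMSO, run to roughly half ATP consumption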
Chain of Pim2 kinase (Q9P1W9 whole entry): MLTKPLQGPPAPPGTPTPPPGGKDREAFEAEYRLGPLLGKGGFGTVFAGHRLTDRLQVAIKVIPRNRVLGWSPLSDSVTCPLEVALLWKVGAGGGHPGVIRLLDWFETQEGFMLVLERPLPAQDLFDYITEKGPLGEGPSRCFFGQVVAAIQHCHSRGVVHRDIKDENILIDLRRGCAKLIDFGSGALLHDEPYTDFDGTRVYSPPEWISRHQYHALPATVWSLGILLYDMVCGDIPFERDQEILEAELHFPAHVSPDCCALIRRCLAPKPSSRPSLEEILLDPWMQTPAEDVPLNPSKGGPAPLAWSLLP

Pim3 kinase = Pim3 kinase (Homo sapiens, UniProt Q86V86); assay: Pim3 ATP depletion assay

Row | Structure (SMILES) | IC50 (Pim1 kinase; read-out: IC50 (μM) PIM1) [µM] | IC50 (Pim2 kinase; read-out: IC50 (μM) PIM2) [µM] | IC50 (Pim3 kinase; read-out: IC50 (μM) PIM3) [µM] | IC50 (Pim1 kinase; read-out: PIM1 IC50) [µM] | IC50 (Pim2 kinase; read-out: PIM2 IC50) [µM] | IC50 (Pim3 kinase; read-out: PIM3 IC50) [µM]
1 | COC(=O)c1nc(-c2ccc(N)c(C(=O)Nc3cnccc3N3CCC[C@H](N)C3)n2)c(F)cc1N [Example 504, 5,5′-Diamino-6′-(3-amino-3,4,5,6-tetrahydro-2H-[1,4′]bi-pyridinyl-3′-ylcarbamoyl)-3-fluoro-[2,2′]bipyridinyl-6-carboxylic acid methyl ester] | < 1 | < 1 | < 1 |  |  | 
2 | Cc1cc(-c2ccncc2NC(=O)c2nc(-c3cc(C(=O)NC(C)C)ccc3F)ccc2N)nc(N)n1 [Example 563, 3-Amino-6-(2-fluoro-5-isopropylcarbamoyl-phenyl)-pyridine-2-carboxylic acid [4-(2-amino-6-methyl-pyrimidin-4-yl)-pyridin-3-yl]-amide] |  |  |  | < 1 | < 1 | < 1
3 | NC1CC(C(F)(F)F)CN(c2ccncc2NC(=O)c2nc(-c3ccccc3F)ccc2F)C1 (stereo not drawn) [Example 280, 3-Fluoro-6-(2-fluoro-phenyl)-pyridine-2-carboxylic acid (3-amino-5-trifluoromethyl-3,4,5,6-tetrahydro-2H-[1,4′]bipyridinyl-3′-yl)-amide] | < 1 | < 1 | < 1 |  |  | 
4 | CCOc1ccc(F)c(-c2ccc(N)c(C(=O)Nc3cnccc3N3CCC[C@H](N)C3)n2)c1 [Example 469, 3-Amino-6-(5-ethoxy-2-fluoro-phenyl)-pyridine-2-carboxylic acid (3-amino-3,4,5,6-tetrahydro-2H-[1,4′]bipyridinyl-3′-yl)-amide] | < 1 | < 1 | < 1 |  |  | 
5 | Nc1ccc(-c2ccccc2F)nc1C(=O)Nc1cnccc1N1C[C@H](N)C[C@H](N)C1 [Example 248, 3-Amino-6-(2-fluoro-phenyl)-pyridine-2-carboxylic acid (3,5-diamino-3,4,5,6-tetrahydro-2H-[1,4′]bipyridinyl-3′-yl)-amide] | < 1 | < 1 | < 1 |  |  | 
6 | Nc1ccc(-c2ccccc2F)nc1C(=O)Nc1cnccc1-c1cncnc1 [Example 602, 3-amino-6-(2-fluorophenyl)-N-(4-pyrimidin-5-ylpyridin-3-yl)pyridine-2-carboxamide] |  |  |  | < 1 | 1 to 10 | < 1
7 | COc1ccc(F)c(-c2ccc(N)c(C(=O)Nc3cnccc3N3CCC[C@H](N)C3)n2)c1F [Example 493, 3-Amino-6-(2,6-difluoro-3-methoxy-phenyl)-pyridine-2-carboxylic acid (3-amino-3,4,5,6-tetrahydro-2H-[1,4′]bipyridinyl-3′-yl)-amide] | < 1 | < 1 | < 1 |  |  | 
8 | Nc1ccc(-c2ccccc2F)nc1C(=O)Nc1cnccc1N1CCCCC1 [Example 589, 3-amino-6-(2-fluoro-phenyl)-pyridine-2-carboxylic acid (3,4,5,6-tetrahydro-2H-[1,4′]bipyridinyl-3′-yl)-amide] |  |  |  | < 1 | < 1 | < 1
9 | Cc1csc(-c2ccc(N)c(C(=O)Nc3cnccc3N3CCC[C@H](N)C3)n2)c1 [Example 451, 3-Amino-6-(4-methyl-thiophen-2-yl)-pyridine-2-carboxylic acid (3-amino-3,4,5,6-tetrahydro-2H-[1,4′]bipyridinyl-3′-yl)-amide] | < 1 | < 1 | < 1 |  |  | 
10 | Nc1ccc(-c2ccccc2F)nc1C(=O)Nc1cnccc1-c1cncc(F)c1 [Example 601, 3-amino-N-(5-fluoro-3,4′-bipyridin-3′-yl)-6-(2-fluorophenyl)pyridine-2-carboxamide] |  |  |  | < 1 | < 1 | < 1
11 | Nc1ccc(-c2cccc(Br)c2)nc1C(=O)Nc1cnccc1N1CCC[C@H](N)C1 [Example 459, 3-Amino-6-(3-bromo-phenyl)-pyridine-2-carboxylic acid (3-amino-3,4,5,6-tetrahydro-2H-[1,4′]bipyridinyl-3′-yl)-amide] | < 1 | < 1 | < 1 |  |  | 
12 | Nc1ccc(-c2ccccc2F)nc1C(=O)Nc1cnccc1-c1ccncc1Cl [Example 615, 3-amino-N-(3′-chloro-4,4′-bipyridin-3-yl)-6-(2-fluorophenyl)pyridine-2-carboxamide] |  |  |  | < 1 | < 1 | < 1
13 | Nc1cc(-c2ccncc2NC(=O)c2nc(-c3nccs3)ccc2N)cc(C(F)(F)F)n1 [Example 640, 3-amino-N-[2′-amino-6′-(trifluoromethyl)-4,4′-bipyridin-3-yl]-6-(1,3-thiazol-2-yl)pyridine-2-carboxamide] |  |  |  | < 1 | < 1 | < 1
14 | Nc1ncccc1C(=O)Nc1cnccc1N1CCCC(N)C1 (stereo not drawn) [Example 200, 2-amino-N-[4-(3-aminopiperidin-1-yl)pyridin-3-yl]nicotinamide] | 10 to 25 | > 25 | > 25 |  |  | 
15 | NC1CC(C(F)(F)F)CN(c2ccncc2NC(=O)c2ccc(F)c(-c3ccccc3F)n2)C1 (stereo not drawn) [Example 281, 5-Fluoro-6-(2-fluoro-phenyl)-pyridine-2-carboxylic acid (3-amino-5-trifluoromethyl-3,4,5,6-tetrahydro-2H-[1,4′]bipyridinyl-3′-yl)-amide] | < 1 | < 1 | < 1 |  |  | 
16 | CC(C)Oc1ccc(F)c(-c2ncc(N)c(C(=O)Nc3cnccc3N3CCC[C@H](N)C3)n2)c1 [Example 541, 5-Amino-2-(2-fluoro-5-isopropoxy-phenyl)-pyrimidine-4-carboxylic acid (3-amino-3,4,5,6-tetrahydro-2H-[1,4′]bi-pyridinyl-3′-yl)-amide] |  |  |  | < 1 | < 1 | < 1
17 | CC(C)Oc1ccc(F)c(-c2nc(C(=O)Nc3cnccc3N3CC[C@@H](O)[C@H](N)C3)c(N)cc2F)c1F [Example 664, 3-Amino-6-(2,6-difluoro-3-isopropoxy-phenyl)-5-fluoro-pyridine-2-carboxylic acid (3-amino-4-hydroxy-3,4,5,6-tetra-hydro-2H-[1,4′]bipyridinyl-3′-yl)-amide] |  |  |  | < 1 | < 1 | < 1
18 | Nc1cc(-c2ccncc2NC(=O)c2nc(-c3ccc(CN4CCOCC4)cc3)ccc2N)nc(C(F)(F)F)n1 [Example 572, 3-Amino-6-(4-morpholin-4-ylmethyl-phenyl)-pyridine-2-carboxylic acid [4-(6-amino-2-trifluoromethyl-pyrimidin-4-yl)-pyridin-3-yl]-amide] |  |  |  | < 1 | < 1 | < 1
19 | Nc1cnc(-c2ccccc2)nc1C(=O)Nc1cnccc1N1CCCC(O)(C(F)(F)F)C1 (stereo not drawn) [Example 262, 5-Amino-2-phenyl-pyrimidine-4-carboxylic acid (3-hydroxy-3-trifluoromethyl-3,4,5,6-tetra-hydro-2H-[1,4′]bipyridinyl-3′-yl)-amide] | < 1 | 1 to 10 | < 1 |  |  | 

The remaining lines, values ahead:

Row | IC50 (Pim1 kinase; read-out: IC50 (μM) PIM1) [µM] | IC50 (Pim2 kinase; read-out: IC50 (μM) PIM2) [µM] | IC50 (Pim3 kinase; read-out: IC50 (μM) PIM3) [µM] | IC50 (Pim1 kinase; read-out: PIM1 IC50) [µM] | IC50 (Pim2 kinase; read-out: PIM2 IC50) [µM] | IC50 (Pim3 kinase; read-out: PIM3 IC50) [µM] | Structure (SMILES)
20 |  |  |  | < 1 | < 1 | < 1 | Cc1cc(-c2ccncc2NC(=O)c2nc(-c3ncccc3F)ccc2N)cc(N)n1 [Example 746, 5-Amino-3′-fluoro-[2,2′]bi-pyridinyl-6-carboxylic acid (2′-amino-6′-methyl-[4,4′]bi-pyridinyl-3-yl)-amide]
21 |  |  |  | < 1 | < 1 | < 1 | Nc1ccc(-c2cccc[n+]2[O-])nc1C(=O)Nc1cnccc1N1CCC[C@H](N)C1 [Example 693, 5-Amino-1′-oxy-[2,2′]bi-pyridinyl-6-carboxylic acid (3-amino-3,4,5,6-tetrahydro-2H-[1,4′]bipyridinyl-3′-yl)-amide]
22 |  |  |  | < 1 | < 1 | < 1 | CC(C)CCc1ccc(F)c(-c2ccc(N)c(C(=O)Nc3cnccc3N3CCC[C@H](N)C3)n2)c1 [Example 755, (S)-3-amino-N-(4-(3-aminopiperidin-1-yl)pyridin-3-yl)-6-(2-fluoro-5-isopentylphenyl)picolinamide]
23 |  |  |  | < 1 | < 1 | < 1 | Nc1ccc(-c2nccs2)nc1C(=O)Nc1cnccc1N1CC[C@@H](O)[C@H](N)C1 [Example 669, 3-Amino-6-thiazol-2-yl-pyridine-2-carboxylic acid (3-amino-4-hydroxy-3,4,5,6-tetra-hydro-2H-[1,4′]bipyridinyl-3′-yl)-amide]
24 |  |  |  | < 1 | < 1 | < 1 | Nc1ccc(-c2ncccc2F)nc1C(=O)Nc1cnccc1N1CCC[C@H](O)C1 [Example 690, 5-Amino-3′-fluoro-[2,2′]bi-pyridinyl-6-carboxylic acid (3-hydroxy-3,4,5,6-tetrahydro-2H-[1,4′]bipyridinyl-3′-yl)-amide]
25 |  |  |  | < 1 | < 1 | < 1 | CC(C)Oc1ccc(F)c(-c2ccc(N)c(C(=O)Nc3cnccc3N3CC[C@@H](N)[C@H](O)C3)n2)c1F (stereo in doubt) [Example 667, 3-Amino-6-(2,6-difluoro-3-isopropoxy-phenyl)-pyridine-2-carboxylic acid (4-amino-3-hydroxy-3,4,5,6-tetrahydro-2H-[1,4′]bipyridinyl-3′-yl)-amide]
26 |  |  |  | < 1 | < 1 | < 1 | CC(C)Oc1ccc(F)c(-c2nc(C(=O)Nc3cnccc3N3CC[C@@H](N)[C@H](O)C3)c(N)cc2F)c1F [Example 666, 3-Amino-6-(2,6-difluoro-3-isopropoxy-phenyl)-5-fluoro-pyridine-2-carboxylic acid (4-amino-3-hydroxy-3,4,5,6-tetra-hydro-2H-[1,4′]bipyridinyl-3′-yl)-amide]
27 |  |  |  | < 1 | < 1 | < 1 | CC(C)NC(=O)c1ccc(F)c(-c2ccc(N)c(C(=O)Nc3cnccc3N3CCCC(C)(N)C3)n2)c1 (stereo not drawn) [Example 675, 3-Amino-6-(2-fluoro-5-isopropylcarbamoyl-phenyl)-pyridine-2-carboxylic acid (3-amino-3-methyl-3,4,5,6-tetra-hydro-2H-[1,4′]bipyridinyl-3′-yl)-amide]
